In assay [1] the target is T1, maize endosperm AGPase, large subunit variant GG (Q96G, D161G; numbering of SEQ ID NO: 20) (Zea mays, UniProt P55241+Q84PF5, D161G/Q96G).
T1 sequence (P55241 46-516 D161G/Q96G): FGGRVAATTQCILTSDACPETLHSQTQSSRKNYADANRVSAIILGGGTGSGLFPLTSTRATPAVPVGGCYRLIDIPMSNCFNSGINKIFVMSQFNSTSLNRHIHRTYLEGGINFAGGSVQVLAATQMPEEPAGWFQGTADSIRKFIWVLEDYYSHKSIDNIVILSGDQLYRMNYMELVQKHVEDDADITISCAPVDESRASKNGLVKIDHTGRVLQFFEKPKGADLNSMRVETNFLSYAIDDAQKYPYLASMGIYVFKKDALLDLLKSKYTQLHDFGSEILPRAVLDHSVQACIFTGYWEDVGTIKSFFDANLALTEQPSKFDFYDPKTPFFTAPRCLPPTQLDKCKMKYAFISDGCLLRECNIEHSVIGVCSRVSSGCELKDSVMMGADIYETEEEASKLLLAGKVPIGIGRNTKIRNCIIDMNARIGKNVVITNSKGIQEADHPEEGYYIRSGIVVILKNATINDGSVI
T1 sequence (Q84PF5 1-474): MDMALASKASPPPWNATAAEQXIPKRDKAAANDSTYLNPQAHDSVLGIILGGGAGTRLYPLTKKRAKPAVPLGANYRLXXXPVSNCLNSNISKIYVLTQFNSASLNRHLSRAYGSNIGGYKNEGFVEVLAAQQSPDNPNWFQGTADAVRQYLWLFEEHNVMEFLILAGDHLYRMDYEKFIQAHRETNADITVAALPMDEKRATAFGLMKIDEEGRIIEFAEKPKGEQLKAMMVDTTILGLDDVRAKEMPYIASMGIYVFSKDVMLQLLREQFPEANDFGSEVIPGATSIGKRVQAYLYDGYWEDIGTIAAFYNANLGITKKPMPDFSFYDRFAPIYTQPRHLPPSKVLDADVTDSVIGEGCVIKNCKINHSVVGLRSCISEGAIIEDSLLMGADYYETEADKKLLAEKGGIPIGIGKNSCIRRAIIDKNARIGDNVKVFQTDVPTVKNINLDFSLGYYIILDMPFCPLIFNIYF
The assay is described as follows: Apparent kinetic constants with 3-PGA, 37° C., GG. The settings on record: read-out: ATP Km. Type of assay: biochemical. An excerpt:
The small and large subunit plasmids of maize endosperm AGPase (pMONcBt2 and pMONcSh2, respectively) (Giroux et al., 1996) were expressed in E. coli AC70R1-504 cells (Iglesias et al., 1993) as previously described (Boehlein et al., 2008).
An endpoint assay was used to determine the rate of the AGPase reaction by coupling the formation of PPi to a decrease in NADH concentration (Boehlein et al., 2008). […] The Michaelis constants (Km) were obtained by varying one substrate in the presence of saturating concentrations of the second substrate. The activation constants were obtained by varying the activator at fixed levels of both substrates. All reactions were performed at 37° C. and mixes were prewarmed before starting the reaction with enzyme. […] The absorbance at 340 nm was monitored after 30 min and the amount of PPi produced was determined from a standard curve using PPi in complete reaction mixtures lacking AGPase. Blank samples contained complete reaction mixtures without enzyme and the change in absorbance between the blank and the reaction was used to calculate the amount of PPi produced. […]
The apparent Michaelis constant and maximum velocity of each reaction was calculated from a V vs. S plots using nonlinear regression analysis and the following equation, v=VmaxS/(Km+S), where v is the measured velocity, Vmax is the maximum velocity, S is the substrate concentration. […]

The target in assay [2] is T2, maize endosperm AGPase, large subunit variant GGR (Q96G, D161G, A443R; numbering of SEQ ID NO: 20) (Zea mays, UniProt P55241+Q84PF5, A443R/D161G/Q96G).
T2 sequence (P55241 46-516 A443R/D161G/Q96G): T1 sequence (P55241 46-516 D161G/Q96G) with A398R
T2 sequence (Q84PF5 1-474): T1 sequence (Q84PF5 1-474)
Description: Pi inhibition in the presence of 3-PGA, GGR. Type of assay: biochemical. The settings on record: read-out: Km (ATP), presence of 3-PGA, ATP varied, Pi inhibition, L-MT.
Description: Inhibition by Pi was then followed in the presence of the activator 3-PGA.

For assay [3], the system named is maize endosperm AGPase, evolutionary mutant SH2-E (SH2E). The conditions noted are these: presence of 3-PGA, ATP varied, Pi inhibition, NC, read-out: Km (ATP); cited from earlier work.

Changes are numbered by the printed parent chain.

With `Nc1ncnc2c1ncn2[C@@H]1O[C@H](COP(=O)(O)OP(=O)(O)OP(=O)(O)O)[C@@H](O)[C@H]1O` [ATP], the Km in assay [1] was 31 µM; in assay [2], 110 µM; in assay [3] it was 210 µM.

Broadly, the Km is the concentration of substrate that gives half-maximal velocity.

The values above are taken from US9650616B2, “Methods for increasing grain yield” (University of Florida Research Foundation, Inc., priority 2014, dated 2017).
